System: not given
Assay: not given
Details: not given

Row | melting point | SMILES
1 | > 240 °C | COc1ccc(-c2ccc(COc3cc4c(cc3CCN(CCCCC(=O)O)Cc3ccc(C(=O)O)cc3)CCCC4)cc2)cc1 [Example 13, 4-{[(4-Carboxybutyl)(2-{3-[(4′-methoxy-1,1′-biphenyl-4-yl)methoxy]-5,6,7,8-tetrahydro-2-naphthyl}ethyl)amino]methyl}benzoic acid]

System: arteria saphena rings
Assay: Vasorelaxant effect in vitro (phenylephrine-contracted rings of rabbit arteria saphena)
Type: cell-based
Details: Oryctolagus cuniculus, contraction generated by phenylephrine, concentration reducing height of control contraction by 50%
Procedure: Vasorelaxant Effect in Vitro
Rabbits are anesthetized or killed by intravenous injection of thiopental sodium (about 50 mg/kg) and exsanguinated. The arteria saphena is removed and divided into rings 3 mm wide. The individual rings are in each case mounted on a pair of hooks of triangular shape, open at the ends and made of special wire (Remanium®) having a diameter of 0.3 mm. Under tension, each ring is introduced into a 5 ml organ bath containing carbogen-gassed Krebs-Henseleit solution at 37° C. with the following composition (mM): NaCl: 119; KCl: 4.8; CaCl2×2H2O: 1; MgSO4×7H2O: 1.4; KH2PO4: 1.2; NaHCO3: 25; glucose: 10; bovine serum albumin: 0.001%. The force of contraction is detected with Statham UC2 cells, amplified and digitized via A/D converters (DAS-1802 HC, Keithley Instruments, Munich) and recorded in parallel on chart recorders. Contractions are generated by adding phenylephrine.
After several (generally 4) control cycles, the substance to be investigated is added in each further run in increasing dosage in each case, and the height of the contraction reached under the influence of the test substance is compared with the height of the contraction reached in the last preceding run. The concentration necessary to reduce the height of the control value by 50% (IC50) is calculated from this. The standard application volume is 5 μl. The DMSO content in the bath solution corresponds to 0.1%.

Row | SMILES | IC50
2 | COc1ccc(-c2ccc(OCc3c(C)sc(C)c3CCN(CCCCC(=O)O)Cc3ccc(C(=O)O)cc3)cc2)cc1 [Example 5] | 7 nM
3 | Cc1sc(C)c(COc2ccc(-c3ccc(C(C)(C)C)cc3)cc2)c1CCN(CCCCC(=O)O)Cc1ccc(C(=O)O)cc1 [Example 9] | 61 nM
4 | COc1cccc(-c2ccc(OCc3c(C)sc(C)c3CCN(CCCCC(=O)O)Cc3ccc(C(=O)O)cc3)cc2)c1 [Example 10] | 51 nM
5 | COc1ccc(-c2ccc(COc3cc4c(cc3CCN(CCCCC(=O)O)Cc3ccc(C(=O)O)cc3)CCCC4)cc2)cc1 [Example 13, 4-{[(4-Carboxybutyl)(2-{3-[(4′-methoxy-1,1′-biphenyl-4-yl)methoxy]-5,6,7,8-tetrahydro-2-naphthyl}ethyl)amino]methyl}benzoic acid] | 94 nM

The next lines start with the values.

Row | IC50 | SMILES
6 | 2 nM | Cc1sc(C)c(COc2ccc(-c3ccc(Cl)cc3Cl)cc2)c1CCN(CCCCC(=O)O)Cc1ccc(C(=O)O)cc1 [Example 3, 4-({(4-Carboxybutyl)[2-(4-{[(2′,4′-dichloro-1,1′-biphenyl-4-yl)oxy]methyl}-2,5-dimethyl-3-thienyl)ethyl]amino}methyl)benzoic acid]
7 | 22 nM | Cc1sc(C)c(COc2ccc(-c3ccc(C(F)(F)F)cc3)cc2)c1CCN(CCCCC(=O)O)Cc1ccc(C(=O)O)cc1 [Example 4]
8 | 125 nM | Cc1ccc(OCc2ccc(-c3ccc(C(F)(F)F)cc3)cc2)c(CCN(CCCCC(=O)O)Cc2ccc(C(=O)O)cc2)n1 [Example 16]

From US7705043B2, “Substituted aminodicarboxylic acid derivatives having pharmaceutical properties” (Bayer Schering Pharma Aktiengesellschaft, priority 2001, dated 2010)
